Assays:
HIF-regulated genes = test: Expression of HIF-regulated genes in vivo, Murine genome U74AV2 array; design: species or system mouse; settings: 100 mg/kg oral gavage
Protocol: Twenty four Swiss Webster male mice (30-32 g) were obtained from Simonsen, Inc., and treated by oral gavage with a 4 ml/kg volume of either 0.5% CMC (Sigma-Aldrich) (0 mg/kg/day) or […] Compound A (25 mg/ml in 0.5% CMC) (100 mg/kg). At 4, 8, 16, 24, 48, or 72 hours after the final dose, animals were anesthetized with isoflurane and a blood sample was collected from the abdominal vein. The blood sample was collected into a MICROTAINER serum separator tube (Becton-Dickinson, Franklin Lakes N.J.), incubated at room temperature for 30 minutes, centrifuged at 8,000 rpm at 4° C. for 10 min, and cell pellet was resuspended in […] solution (Ambion) and stored at −80° C. The mice were then sacrificed and tissue samples of kidney, liver, brain, lung, and heart were isolated and stored in […] solution (Ambion) at −80° C.
RNA isolation was carried out using the following protocol. […] The RNA was eluted into 80 μL of water and quantitated with RIBOGREEN reagent (Molecular Probes, Eugene Oreg.). […] The absorbance at 260 and 280 nm was measured to determine RNA purity and concentration.
Alternatively, tissue samples were diced and homogenized in TRIZOL reagent (Invitrogen Life Technologies, Carlsbad Calif.) using a rotor-stator POLYTRON homogenizer (Kinematica). […] The absorbance at 260 and 280 nm was measured to determine RNA purity and concentration. […]

[1] = system: Wistar rats, acute myocardial infarction (AMI); test: Cardiac ischemia Experiment I, 10-week study after acute myocardial infarction; type: in vivo, rat
Protocol: Alternatively, one hundred forty adult male Wistar rats (200-250 g) were anaesthetized and subjected to left coronary artery occlusion to produce AMI. Forty-eight hours after surgery, 2DE images were obtained and animals with a significant area of infarction were randomized to treatment with compound A (n=34) or vehicle (n=34).
Animals were treated by gavage 2 times per day for the duration of the experiment with compound A at 50 mg/kg or with vehicle alone. Serum level of drug was determined periodically to establish that treated animals received sufficient and consistent amount of drug and that the measured levels were sufficient to inhibit prolyl 4-hydroxylase.
Digital mid-papillary muscle and apical four chamber 2DE images were obtained biweekly on half of the animals in each group until week 8. Two observers blinded to treatment did measurements off-line. For the measurements, the digital images were slowed and frozen at end systole and end diastole. Two to three endocardial surfaces were traced in both the short axis and four chamber views and averaged. The left ventricular area in systole and diastole, ejection fraction, fractional area change, wall thickness, mitral peak E wave velocity, aortic peak velocity, and infarct size were measured.
After 10 weeks of treatment, in vivo hemodynamic measurements were determined and hearts were excised and weighed as described below.
To collect in vivo hemodynamic measurements, animals were anaesthetized and the right carotid artery was dissected free from surrounding tissues and canulated with an SPR-671 ultra-miniature pressure transducer (Millar Instruments, Inc., Houston Tex.). The catheter was then advanced into the left ventricle. After steady state was established, baseline heart rate (HR), developed pressure (DP), contractile index (CI), left ventricle systolic pressure (SBP) and end diastolic pressure (LVEDP), and maximal rate of pressure rise and fall (+dP/dt and −dP/dt, respectively) were recorded.
Following hemodynamic measurement, hearts were excised and weighed. Pieces of scarred myocardium, and right ventricle and left ventricle myocardium distant from the site of infarct were dissected out and weighed. Hydroxyproline and proline were determined by the method of Palmerini et al. (1985, J Chromatogr 339:285-92) except that L-azetidine-2-carboxylic acid (Sigma-Aldrich) was substituted for 3,4-dehydroproline as the internal standard.

[2] = system: vascular endothelial growth factor (VEGF); test: VEGF expression in conditioned media, QUANTIKINE immunoassay; type: cell-based, human; settings: HFF, 293A and Hep3B cells
Protocol: When cell layers reached confluence, the media was replaced with OPTI-MEM media (Invitrogen Life Technologies, Carlsbad Calif.) and cell layers were incubated for approximately 24 hours in 20% O2, 5% CO2 at 37° C. Compound of the invention (one of compounds A to O) or DMSO (0.5 to 1%) was then added to existing medium, and incubation was continued overnight.
Conditioned media collected from cell cultures grown as in Example 1 was analyzed for vascular endothelial growth factor (VEGF) expression using a QUANTIKINE immunoassay (R&D Systems) according to the manufacturer's instructions. […] Values on the y-axis represent fold-induction relative to control and are reported on a log2 scale, such that a value of 1 represents 2-fold induction.

O=C(O)c1c[nH]c2c(ccc3cccnc32)c1=O [Compound A, 4-oxo-1,4-dihydro-[1,10]phenanthroline-3-carboxylic acid]
expression of genes encoding glycolytic enzymes (FIG. 7A) (HIF-regulated genes; mouse kidney): increased | expression of genes encoding angiogenic proteins (FIG. 5A) (HIF-regulated genes; mouse lung): increased | deaths immediately following insult to the heart (FIG. 8) ([1]; 50 mg/kg gavage 2 times per day, n=34): no deaths | percent of treated group still alive ([1]; 8 weeks after myocardial infarction, 50 mg/kg gavage 2 times per day): over 90% | +dP/dt ([1]; 10 weeks post-MI): 6701 ± 331 mm Hg/sec | Developed pressure ([1]; 10 weeks post-MI): 97 ± 3 mm Hg | Hydroxyproline/proline in infarct scar ([1]; 10 weeks post-MI): 0.471 ± 0.024 | Hydroxyproline/proline in non-infarct left ventricular myocardium ([1]; 10 weeks post-MI): 0.099 ± 0.025 | Hydroxyproline/proline in non-infarct right ventricular myocardium ([1]; 10 weeks post-MI): 0.152 ± 0.044 | Systolic BP ([1]; 10 weeks post-MI): 106 ± 4 mm Hg | −dP/dt ([1]; 10 weeks post-MI): 6395 ± 373 mm Hg/sec | left ventricular ejection fraction (LVEF) ([1]; at randomization): 33% | relative reduction in mortality ([1]; treated relative to untreated group, weeks 2 through 8): 77% | left ventricular ejection fraction (LVEF) relative to untreated controls (FIG. 10A) ([1]; weeks 2 through 8): statistically significant improvement | VEGF expression in conditioned media (FIG. 4A) [2]: increase in VEGF expression

— patent publication US8466172B2, “Stabilization of hypoxia inducible factor (HIF) alpha” (FibroGen, Inc., priority 2001, dated 2013)
